# Assay results as given in patent US9353067B2, “Heterocyclic compounds and uses thereof in the treatment of sexual disorders” (ATIR Holding S.A., priority 2011, dated 2016).
# How the values were obtained:
# [1] = Hydrolysis (half-life) of esterified derivatives of R-55 in rat plasma; assay type: in vitro ADME; conditions: fresh rat plasma; hydrolysis of ester to R-55, rat plasma, 37° C.; read-out: T1/2 in rat plasma
# Method: (§1) 50 μl of dimethyl sulfoxide containing 0.2 mg of the tested derivative was added to 1 ml of fresh plasma (human or rat) in a sterile Eppendorf tube. The samples were then incubated at 37° C., and 100 μl samples were removed at various times, up to 120 minutes after incubation. The plasma samples were immediately added to 1 ml acetonitrile. After vigorous mixing by vortex, the samples were centrifuged for 10 minutes at 2000 rotations per minute at 4° C. 0.95 ml of the supernatant was then removed and stored at −20° C. until determination of the concentrations of R-55 and its esterified derivative by LCMS analysis.
# [2] = Hydrolysis (half-life) of esterified derivatives of R-55 in human plasma; assay type: in vitro ADME; conditions: for half-life at 0.19 mg/ml: fresh human plasma, hydrolysis of ester to R-55, human plasma, 37° C., read-out: T1/2 in human plasma; for rate of hydrolysis (in words): human and rat plasma, comparison of acyl moieties
# Method: as §1
SMILES,half-life at 0.19 mg/ml [1] [min],half-life at 0.19 mg/ml [2] [min],rate of hydrolysis (in words) [2]
CCC(=O)Oc1cccc(N2CCN(Cc3nc4ccccc4c(=O)[nH]3)CC2)c1 [Compound L-128],0.31,10,relatively rapid hydrolysis
COc1ccc(C(=O)Oc2cccc(N3CCN(Cc4nc5ccccc5c(=O)[nH]4)CC3)c2)cc1 [Compound L-162],54,377,slower hydrolysis than exhibited by the corresponding non-substituted aryl
Cc1ccc(S(=O)(=O)Oc2cccc(N3CCN(Cc4nc5ccccc5c(=O)[nH]4)CC3)c2)cc1 [Compound L-163],> 1000,> 1000,considerably slower hydrolysis than carboxyl esters
CS(=O)(=O)Oc1cccc(N2CCN(Cc3nc4ccccc4c(=O)[nH]3)CC2)c1 [Compound L-164],> 1000,> 1000,considerably slower hydrolysis than carboxyl esters
N#Cc1cccc(C(=O)Oc2cccc(N3CCN(Cc4nc5ccccc5c(=O)[nH]4)CC3)c2)c1 [Compound L-166],7.1,480,
O=C(Oc1cccc(N2CCN(Cc3nc4ccccc4c(=O)[nH]3)CC2)c1)C12CC3CC(CC(C3)C1)C2 [Compound L-167],58,750,relatively slow hydrolysis
O=C(Oc1cccc(N2CCN(Cc3nc4ccccc4c(=O)[nH]3)CC2)c1)C1CCCCC1 [Compound L-169],4.7,41,relatively rapid hydrolysis
COc1ccc(CC(=O)Oc2cccc(N3CCN(Cc4nc5ccccc5c(=O)[nH]4)CC3)c2)cc1 [Compound L-170],7.5,280,
CCOc1ccc(C(=O)Oc2cccc(N3CCN(Cc4nc5ccccc5c(=O)[nH]4)CC3)c2)cc1 [Compound L-173],16.5,> 1000,considerably slower hydrolysis
COc1ccccc1C(=O)Oc1cccc(N2CCN(Cc3nc4ccccc4c(=O)[nH]3)CC2)c1 [Compound L-174],52,455,slower hydrolysis than exhibited by the corresponding non-substituted aryl
Cc1ccccc1C(=O)Oc1cccc(N2CCN(Cc3nc4ccccc4c(=O)[nH]3)CC2)c1 [Compound L-199],44,> 1000,
O=C(Oc1cccc(N2CCN(Cc3nc4ccccc4c(=O)[nH]3)CC2)c1)c1ccc(F)cc1 [Compound L-209],35,470,slower hydrolysis than exhibited by the corresponding non-substituted aryl
